Results: patent publication EP0620225B1, “Cephalosporin derivatives” (Basilea Pharmaceutica AG, priority 1993, dated 1994)
Values after ≈ are worked out from the molar mass of the structure shown.

Experiments:
M.catarrhalis = experiment: In vitro activity against selected species (MIC50, MIC90, range); assay type: cell-based; settings: Moraxella catarrhalis, medium IsoB
E.faecalis [1] = experiment: as above; assay type: cell-based; settings: Enterococcus faecalis, medium IsoB
E.faecium = experiment: In vitro activity against selected species (MIC50, range); assay type: cell-based; settings: Enterococcus faecium, medium MHA
Procedure: (§1) In vitro activity was determined by minimum inhibitory concentration in a microorganism spectum by the agar dilution method in Mueller Hinton agar.

S.aureus MRSA = experiment: In vitro activity against selected species (MIC50, MIC90, range); assay type: cell-based; settings: Staphylococcus aureus, medium MHA (Mueller Hinton Agar) +NaCl
Procedure: as §1

E.faecalis [2] = experiment: as above; assay type: cell-based; settings: Enterococcus faecalis, medium MHA
Procedure: as §1

S.viridans group = experiment: as above; assay type: cell-based
S.agalactiae QK44 = experiment: Antibacterial spectrum (MIC), agar dilution; assay type: cell-based; settings: Streptococcus agalactiae, read-out: MIC
Procedure: as §1

C.freundii 43 = experiment: Antibacterial spectrum (MIC), agar dilution; assay type: cell-based; settings: Citrobacter freundii, read-out: MIC
Procedure: as §1

S.aureus 6538 = experiment: Antibacterial spectrum (MIC), agar dilution; assay type: cell-based; settings: Staphylococcus aureus, read-out: MIC
Procedure: as §1

Acinetobacter sp.51-156 = experiment: Antibacterial spectrum (MIC), agar dilution; assay type: cell-based; settings: SP.51156, read-out: MIC
Procedure: as §1

P.aeruginosa 27853 = experiment: Antibacterial spectrum (MIC), agar dilution; assay type: cell-based; settings: Pseudomonas aeruginosa, read-out: MIC
Procedure: as §1

P.asaccharolyticus 29743 = experiment: Antibacterial spectrum (MIC), agar dilution; assay type: cell-based; settings: Peptoniphilus asaccharolyticus, read-out: MIC
Procedure: as §1

S.marcescens 69438 = experiment: Antibacterial spectrum (MIC), agar dilution; assay type: cell-based; settings: Serratia marcescens, read-out: MIC
Procedure: as §1

B.fragilis ATCC25285 = experiment: Antibacterial spectrum (MIC), agar dilution; assay type: cell-based; settings: Bacteroides fragilis, read-out: MIC
Procedure: as §1

X.maltophilia 1AC739 = experiment: Antibacterial spectrum (MIC), agar dilution; assay type: cell-based; settings: Stenotrophomonas maltophilia, read-out: MIC
Procedure: as §1

S.viridans group 016 = experiment: Antibacterial spectrum (MIC), agar dilution; assay type: cell-based; settings: Streptococcus viridans, read-out: MIC
Procedure: as §1

K.pneumoniae 418 = experiment: Antibacterial spectrum (MIC), agar dilution; assay type: cell-based; settings: Klebsiella pneumoniae, read-out: MIC
Procedure: as §1

E.cloacae 908SSi = experiment: Antibacterial spectrum (MIC), agar dilution; assay type: cell-based; settings: Enterobacter cloacae, read-out: MIC
Procedure: as §1

S.pneumoniae Q19 = experiment: Antibacterial spectrum (MIC), agar dilution; assay type: cell-based; settings: Streptococcus pneumoniae, read-out: MIC
Procedure: as §1

H.influenzae 1 = experiment: Antibacterial spectrum (MIC), agar dilution; assay type: cell-based; settings: Haemophilus influenzae, read-out: MIC
Procedure: as §1

S.aureus 734 MRSA = experiment: Antibacterial spectrum (MIC), agar dilution; assay type: cell-based; settings: Staphylococcus aureus, read-out: MIC
Procedure: as §1

L.monocytogenes BK23 = experiment: Antibacterial spectrum (MIC), agar dilution; assay type: cell-based; settings: Listeria monocytogenes, read-out: MIC
Procedure: as §1

C.freundii 902 = experiment: Antibacterial spectrum (MIC), agar dilution; assay type: cell-based; settings: Citrobacter freundii, read-out: MIC
Procedure: as §1

M.catarrhalis RA21 = experiment: Antibacterial spectrum (MIC), agar dilution; assay type: cell-based; settings: Moraxella catarrhalis, read-out: MIC
Procedure: as §1

M.morganii 6H-137 = experiment: Antibacterial spectrum (MIC), agar dilution; assay type: cell-based; settings: Morganella morganii, 6H137, read-out: MIC
Procedure: as §1

E.cloacae 908R = experiment: Antibacterial spectrum (MIC), agar dilution; assay type: cell-based; settings: Enterobacter cloacae, read-out: MIC
Procedure: as §1

S.pyogenes B15 = experiment: Antibacterial spectrum (MIC), agar dilution; assay type: cell-based; settings: Streptococcus pyogenes, read-out: MIC
Procedure: as §1

E.coli 25922 = experiment: Antibacterial spectrum (MIC), agar dilution; assay type: cell-based; settings: Escherichia coli, read-out: MIC
Procedure: as §1

C.difficile ZH1 = experiment: Antibacterial spectrum (MIC), agar dilution; assay type: cell-based; settings: Clostridioides difficile, read-out: MIC
Procedure: as §1

N.meningitidis 69480 = experiment: Antibacterial spectrum (MIC), agar dilution; assay type: cell-based; settings: Neisseria meningitidis, read-out: MIC
Procedure: as §1

P.mirabilis 2117 = experiment: Antibacterial spectrum (MIC), agar dilution; assay type: cell-based; settings: Proteus mirabilis, read-out: MIC
Procedure: as §1

P.vulgaris 1028 = experiment: Antibacterial spectrum (MIC), agar dilution; assay type: cell-based; settings: Proteus vulgaris, read-out: MIC
Procedure: as §1

E.faecalis 6 = experiment: Antibacterial spectrum (MIC), agar dilution; assay type: cell-based; settings: Enterococcus faecalis, read-out: MIC
Procedure: as §1

Escherichia coli 25922 = experiment: Efficacy against systemic infections (septicemia) in mice; assay type: in vivo; settings: 96 h, survival day 4
Outline: (§2)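 Swiss albino mice (16–20 g) infected i.p. with 4–10× the 48-h LD50 of each strain; compound given p.o. or s.c. at 1 and 3 h post-challenge, plus 5 h for P. aeruginosa BA. Five mice per group; ED50 (mg/kg) by probit analysis of day-4 survival.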

S.aureus Smith = experiment: as above; assay type: in vivo; settings: Staphylococcus aureus, 96 h, sc 1 and 3 h after challenge, survival day 4
Outline: as §2

S.pneumoniae PEN-R = experiment: In vitro activity against selected species (MIC50, MIC90, range); assay type: cell-based; settings: Streptococcus pneumoniae; for MIC: MIC range
S.aureus MSSA = experiment: as above; assay type: cell-based; settings: Staphylococcus aureus, medium MHB (Mueller Hinton Broth)
[3] = medium IsoB (Isosensitest Broth)

`C=CC1=C(C(=O)O)N2C(=O)[C@@H](NC(=O)/C(=N\O)c3csc(N)n3)[C@H]2SC1` [Cefdinir, reference compound] gave an MIC (M.catarrhalis; MIC range) of 0.25 to 0.5 µg/mL (≈ 0.632 to 1.26 µM), an MIC50 (M.catarrhalis) of 0.25 µg/mL (≈ 0.632 µM) and an MIC90 (M.catarrhalis) of 0.5 µg/mL (≈ 1.26 µM). For the same compound, the MIC (E.faecalis [1]; MIC range) was 1 to 64 µg/mL (≈ 2.53 to 162 µM), the MIC50 (E.faecalis [1]) was 8 µg/mL (≈ 20.2 µM) and the MIC90 (E.faecalis [1]) was 32 µg/mL (≈ 80.9 µM). It also gave an MIC50 (E.faecium) of 16 µg/mL (≈ 40.5 µM), an MIC50 (S.aureus MRSA) greater than 32 µg/mL and an MIC90 (S.aureus MRSA) greater than 32 µg/mL. The MIC (E.faecalis [2]; MIC range) was 4 to 32 µg/mL (≈ 10.1 to 80.9 µM), the MIC50 (E.faecalis [2]) was 8 µg/mL (≈ 20.2 µM) and the MIC90 (E.faecalis [2]) was 16 µg/mL (≈ 40.5 µM). It also gave a Range (S.viridans group; MIC range, medium IsoB) of less than 0.12 to 128 µg/mL, an MIC50 (S.viridans group; Streptococcus viridans) of 8 µg/mL (≈ 20.2 µM) and an MIC90 (S.viridans group; Streptococcus viridans) of 16 µg/mL (≈ 40.5 µM). It also gave an MIC (S.agalactiae QK44) of 0.25 µg/mL (≈ 0.632 µM), an MIC (C.freundii 43) greater than 32 µg/mL and an MIC (S.aureus 6538) of 0.5 µg/mL (≈ 1.26 µM). For the same compound, the MIC (Acinetobacter sp.51-156) was greater than 32 µg/mL, the MIC (P.aeruginosa 27853) was greater than 32 µg/mL and the MIC (P.asaccharolyticus 29743) was no more than 0.12 µg/mL. It also gave an MIC (S.marcescens 69438) of 16 µg/mL (≈ 40.5 µM), an MIC (B.fragilis ATCC25285) of 32 µg/mL (≈ 80.9 µM) and an MIC (X.maltophilia 1AC739) greater than 32 µg/mL. It also gave an MIC (S.viridans group 016) of 2 µg/mL (≈ 5.06 µM), an MIC (K.pneumoniae 418) of 0.12 µg/mL (≈ 0.303 µM) and an MIC (E.cloacae 908SSi) of 32 µg/mL (≈ 80.9 µM). It also gave an MIC (S.pneumoniae Q19) of 0.25 µg/mL (≈ 0.632 µM), an MIC (H.influenzae 1) of 0.5 µg/mL (≈ 1.26 µM) and an MIC (S.aureus 734 MRSA) greater than 32 µg/mL. The MIC (L.monocytogenes BK23) was 16 µg/mL (≈ 40.5 µM), the MIC (C.freundii 902) was 16 µg/mL (≈ 40.5 µM) and the MIC (M.catarrhalis RA21) was 1 µg/mL (≈ 2.53 µM). The MIC (M.morganii 6H-137) was 8 µg/mL (≈ 20.2 µM), the MIC (E.cloacae 908R) was greater than 32 µg/mL and the MIC (S.pyogenes B15) was no more than 0.06 µg/mL. The MIC (E.coli 25922) was 0.25 µg/mL (≈ 0.632 µM), the MIC (C.difficile ZH1) was 32 µg/mL (≈ 80.9 µM) and the MIC (N.meningitidis 69480) was no more than 0.06 µg/mL. The MIC (P.mirabilis 2117) was 0.12 µg/mL (≈ 0.303 µM), the MIC (P.vulgaris 1028) was 1 µg/mL (≈ 2.53 µM) and the MIC (E.faecalis 6) was 8 µg/mL (≈ 20.2 µM). The ED50 (Escherichia coli 25922; Escherichia coli 25922, po (orally) 1 and 3 h after challenge) was 1.8 mg/kg, the ED50 (Escherichia coli 25922; Escherichia coli, E.coli 25922, sc 1 and 3 h after challenge) was less than 1 mg/kg and the ED50 (S.aureus Smith) was less than 1 mg/kg. It also gave an MIC (S.pneumoniae PEN-R; [3]) of 0.1 to 8 µg/mL (≈ 0.253 to 20.2 µM), an MIC (S.pneumoniae PEN-R; medium IsoB + 20% serum) of 0.1 to 8 µg/mL and an MIC50 (S.pneumoniae PEN-R; [3]) of 2 µg/mL (≈ 5.06 µM). For the same compound, the MIC90 (S.pneumoniae PEN-R; [3]) was 4 µg/mL (≈ 10.1 µM), the MIC50 (S.pneumoniae PEN-R; medium IsoB + 20% serum) was 4 µg/mL and the MIC (S.aureus MSSA; MIC range) was 0.5 to 4 µg/mL (≈ 1.26 to 10.1 µM). It also gave an MIC50 (S.aureus MSSA) of 1 µg/mL (≈ 2.53 µM) and an MIC90 (S.aureus MSSA) of 2 µg/mL (≈ 5.06 µM).
